# Results published in patent US10993983B2, “Cyclic peptide epitopes and small-molecule mimics for inducing autophagy” (TRUSTEES OF TUFTS COLLEGE, priority 2016, dated 2021).
# Marks after values point to notes of the source that are not given here.
# Experiments:
# p62 = p62 degradation assay (p62/actin immunoblot);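 on Activity (μM) 10, p62/actin assay activity: HeLa cells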;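 on Activity (μM) 100, p62/actin assay activity: HeLa cells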;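 on Activity (μM) 30, p62/actin assay activity: HeLa cells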;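 on Activity (μM) 50, p62/actin assay activity: HeLa cells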; format: cell-based; design: key: −: activity not reported; 0: decreased vs. WT; +: similar to WT; ++: modest increase vs. WT; +++: significant increase vs. WT; details: first symbol; for Activity (μM) 10, p62/actin assay activity: 10 μM; for Activity (μM) 30, p62/actin assay activity: 30 μM; for Activity (μM) 50, p62/actin assay activity: 50 μM; for Activity (μM) 100, p62/actin assay activity: 100 μM
# Description: (§1) Cells were treated with peptide in OPTI-MEM (Thermo Scientific) acidified with 0.15% (v/v) 6N HCl for 3 hour. Cells were rinsed with Dulbecco's phosphate buffered saline (PBS) and lysed in lysis buffer (20 mM HEPES, 150 mM NaCl, 1 mM EDTA, 1% Triton X-100, protease inhibitor cocktail (Roche) on ice for 1 hour. Cell lysates were centrifuged at 16,000 g for 10 min at 4° C. and analyzed by SDS-PAGE and transferred to PVDF membranes. The membranes were blocked 5% non-fat dry milk (NFDM) in PBST (PBS+0.05% Tween-20) for 1 hour, then incubated overnight at 4° C. with primary antibody in 5% NFDM in PBST. The blots were washed with PBST and incubated with HRP-conjugated secondary antibodies diluted in 5% NFDM in PBST for 1 hour at room temperature. Membranes were washed with PBST and visualized with SuperSignal West Pico Chemiluminescent Substrate (Thermo Scientific). Semi-quantitative results were obtained by noting the lowest concentration at which both p62 degradation and LC3-I to LC3-II conversion were observed.
# (§2) Compounds 1-10 were evaluated using the assays described in Examples 4 and 5. Activity for each compound was measured in the p62 degradation assay and the LC3 marker assay as described herein. The activity at each concentration of peptide is given as, for example, (0/+) where 0 would be the p62/actin assay activity and + would be the LC3 assay activity.
# LC3 = LC3 marker assay (LC3-I to LC3-II conversion immunoblot);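 on Activity (μM) 10, LC3 assay activity: HeLa cells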;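 on Activity (μM) 100, LC3 assay activity: HeLa cells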;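 on Activity (μM) 30, LC3 assay activity: HeLa cells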;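 on Activity (μM) 50, LC3 assay activity: HeLa cells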; format: cell-based; design: key: −: activity not reported; 0: decreased vs. WT; +: similar to WT; ++: modest increase vs. WT; +++: significant increase vs. WT; details: second symbol; for Activity (μM) 10, LC3 assay activity: 10 μM; for Activity (μM) 30, LC3 assay activity: 30 μM; for Activity (μM) 50, LC3 assay activity: 50 μM; for Activity (μM) 100, LC3 assay activity: 100 μM
# Description: as §1, §2
# [1] = Table 8, 10 μM marked * (footnote: data taken at 20 instead of 30 μM)
# [2] = 5 μM, Table 8, control compound T25
Sequence,"Activity (μM) 10, p62/actin assay activity (p62; Table 6, control DMSO)","Activity (μM) 30, p62/actin assay activity (p62; Table 6, control DMSO)","Activity (μM) 50, p62/actin assay activity (p62; Table 6, control DMSO)","Activity (μM) 100, p62/actin assay activity (p62; Table 6, control DMSO)","Activity (μM) 10, LC3 assay activity (LC3; Table 6, control DMSO)","Activity (μM) 30, LC3 assay activity (LC3; Table 6, control DMSO)","Activity (μM) 50, LC3 assay activity (LC3; Table 6, control DMSO)","Activity (μM) 100, LC3 assay activity (LC3; Table 6, control DMSO)","Activity (μM) 30, p62/actin assay activity (p62; Table 7, control compound T25)","Activity (μM) 50, p62/actin assay activity (p62; Table 7, control compound T25)","Activity (μM) 100, p62/actin assay activity (p62; Table 7, control compound T25)","Activity (μM) 30, LC3 assay activity (LC3; Table 7, control compound T25)","Activity (μM) 50, LC3 assay activity (LC3; Table 7, control compound T25)","Activity (μM) 100, LC3 assay activity (LC3; Table 7, control compound T25)",further results
VCNATCHIWH [Compound 23],+,++/++,+++,+++,0,++/++,++,++,,,,,,,
VCNATCHIWH [Compound 24],++/++,+++,+++,+++,++/++,++,++,++,,,,,,,
VCNATCHIWH [Compound 25],++/++,++/++,+++/+++,+++/+++,++/++,++/++,+++/+++,+++/+++,,,,,,,
VCNATCHIWH [Compound 26],++,+++/+++,+++/+++,+++/+++,+++,+++/+++,+++/+++,+++/+++,,,,,,,
VCNATCHIWH [Compound 27],,,,,,,,,0/0,0/0,0/0,0/0,0/0,0/0,
VCNATCHIWH [Compound 28],,,,,,,,,0/0,0/0,+++,0/0,0/0,0,
VCNATCHIWH [Compound 29],,,,,,,,,0/0,+,++,0/0,0,0,
VCNATCHIWH [Compound 30],,,,,,,,,0/0,0/0,+,0/0,0/0,0,"Activity (μM) 30, p62/actin assay activity (p62; Table 8, control compound T25): 0/0; Activity (μM) 50, p62/actin assay activity (p62; Table 8, control compound T25): 0/0; Activity (μM) 100, p62/actin assay activity (p62; Table 8, control compound T25): 0/0; Activity (μM) 10, starred cell, p62/actin assay activity (p62; [1]): 0/0*; Activity (μM) 30, LC3 assay activity (LC3; Table 8, control compound T25): 0/0; Activity (μM) 50, LC3 assay activity (LC3; Table 8, control compound T25): 0/0; Activity (μM) 100, LC3 assay activity (LC3; Table 8, control compound T25): 0/0; Activity (μM) 10, starred cell, LC3 assay activity (LC3; [1]): 0/0*"
VCNATCHIWH [Compound 31],,,,,,,,,0/0,0/0,0/0,0/0,0/0,0/0,
VCNATCHIWH [Compound 32],,,,,,,,,++,++,++,0,0,0,
VCNATCHIWH [Compound 33],,,,,,,,,,,,,,,"Activity (μM) 5, p62/actin assay activity (p62; [2]): 0/0; Activity (μM) 10, p62/actin assay activity (p62; Table 8, control compound T25): 0; Activity (μM) 30, p62/actin assay activity (p62; Table 8, control compound T25): +++; Activity (μM) 50, p62/actin assay activity (p62; Table 8, control compound T25): +++/+++; Activity (μM) 100, p62/actin assay activity (p62; Table 8, control compound T25): +++/+++; Activity (μM) 5, LC3 assay activity (LC3; [2]): 0/0; Activity (μM) 10, LC3 assay activity (LC3; Table 8, control compound T25): +; Activity (μM) 30, LC3 assay activity (LC3; Table 8, control compound T25): ++; Activity (μM) 50, LC3 assay activity (LC3; Table 8, control compound T25): +++/+++; Activity (μM) 100, LC3 assay activity (LC3; Table 8, control compound T25): +++/+++"
